Experimental data reported in patent US9125384B2, “Mouse having human leukemic stem cell and leukemic non-stem cell amplified therein, and method for production thereof” (RIKEN, priority 2007, dated 2015).
Values joined by “and” are separate entries in the source; they are usually repeats but may differ in a detail not shown here. Identical values can stand only once. “Also recorded” adds a separate entry of the source.

Experiments:
[1] = test system: human AML cells (hCD45^+hCD33^+); test: In vivo anti-leukemic cytotoxicity of Ara-C in AML-engrafted NOD/SCID/IL2rγ^null recipients (PB AML cell count); design: species or system mouse (NOD/SCID/IL2rγ^null) engrafted with human AML
[2] = Adverse effect of Ara-C in vivo (hemoglobin, platelet count, plasma AST); settings: 150 mg/kg Ara-C i.p.; day 8 after injection
Description: Intraperitoneal (i.p.) injection of 150 mg/kg Ara-C (Biogenesis, Poole, UK) was performed in NOD/SCID/IL2rγ^null recipients transplanted with 10^4 purified BM […] cells from Cases 4 (n=2) and 7 (n=4) at 12-16 weeks post-transplantation. PB was obtained at the time of injection (day 0) and every four days thereafter and MNCs were labeled with mouse anti-hCD45 and anti-hCD33 monoclonal antibodies to determine the fraction of hCD45^+hCD33^+ cells using flow cytometry. The number of AML cells/ml PB was determined by multiplying the fraction of PB hCD45^+CD33^+ cells with total PB leukocyte count/ml in each recipient. Hemoglobin concentration, platelet count and plasma aspartate aminotransferase (AST) levels were analyzed prior to and at 8 days after Ara-C administration.

[3] = test system: hCD34^+hCD38^− LSCs vs non-stem AML cell fractions; test: Post-chemotherapy apoptosis analysis of BM AML cell fractions (Annexin V/7AAD flow cytometry); assay type: in vivo, mouse (NOD/SCID/IL2rγ^null) engrafted with human AML; settings: 150 mg/kg Ara-C i.p.; BM at day 3 after injection; n=3; p<0.05
Description: NOD/SCID/IL2rγ^null recipients transplanted with 10^4-10^5 sorted BM hCD34^+hCD38^− cells from Cases 4, 7 and 11 at 12-20 weeks post-transplantation were injected with 150 mg/kg Ara-C i.p. At day 3 after injection, BM was analyzed for the presence of apoptotic cells by first dividing the hCD34^+hCD38^−, hCD34^+hCD38^+ and hCD34^− fractions within the hCD45^+ gate and quantifying the viable population in each fraction by Annexin V and 7-amino-actinomycin D (7AAD) staining (BD Immunocytometry, San Jose, Calif.). Annexin V^−7AAD^− hCD45^+hCD34^+hCD38^− cells were sorted and 10^3 cells were injected intravenously into irradiated newborn NOD/SCID/IL2rγ^null recipients.

[4] = test system: human AML cells in BM cavity and endosteal surface; test: Histology of femoral bone sections after Ara-C (HE, TUNEL, immunostaining); assay type: in vivo, mouse (NOD/SCID/IL2rγ^null) engrafted with human AML; settings: day 3 after Ara-C injection, anti-hCD34/hCD38/osteopontin staining
Description: Paraformaldehyde-fixed, decalcified, paraffin-embedded sections were prepared from femurs of the recipients transplanted with sorted hCD34^+hCD38^− AML BM cells. Each section was subjected to hematoxylin and eosin (HE) staining. TUNEL staining was performed according to standard procedures using ApopTag peroxidase in situ apoptosis detection kit (Intergene, Purchase, N.Y.) by Biopathology Institute (Oita, Japan). To determine the localization of the CD34^+ cell populations, sections were immunostained with mouse anti-hCD34 antibody (Immunotech, France) and rat anti-mouse osteopontin antibody (Immuno-Biological Laboratories, Tokyo, Japan) were used. For the quantitative localization of LSCs, enodosteal and central regions were defined as the zones within or outside twelve cells from the endosteum, respectively, as described previously (Nilsson, S. K., Johnston, H. M. & Coverdale, J. A. Spatial localization of transplanted hemopoietic stem cells: inferences for the localization of stem cell niches. Blood 97, 2293-2299 (2001)). […] A total of 10,065 cells were counted from femoral and tibial sections. For localization post-engraftment analysis, a total of 24,973 cells were counted using femoral and tibial sections prepared from recipients of BM hCD34^+hCD38^− cells from Cases 4, 10 and 11. […]

Nc1ccn([C@@H]2O[C@H](CO)[C@@H](O)[C@@H]2O)c(=O)n1 [Ara-C, cytosine arabinoside]
time of nadir of AML count ([1]; single 150 mg/kg Ara-C i.p. on day 0, PB): 8 to 12 days
time of recovery of PB AML cell count (relapse) ([1]; single 150 mg/kg Ara-C i.p. on day 0, PB, 150 mg/kg): 28 to 32 days and 16 to 28 days
PB AML burden (hCD45^+hCD33^+ cell count per ml of PB) ([1]; single 150 mg/kg Ara-C i.p., 12-16 weeks post-transplantation, monitored every four days, 150 mg/kg): rapid decline in AML burden; also recorded: markedly reduced
hematologic adverse effects (hemoglobin concentration, platelet count) [2]: Typical hematologic adverse effects; also recorded: anemia and thrombocytopenia in all treated mice
chemosensitivity of hCD34^+hCD38^− LSCs compared with non-stem AML cell fractions (apoptosis) [3]: relative resistance to Ara-C; also recorded: more resistant to Ara-C; also recorded: relatively resistant to Ara-C treatment
localization of apoptotic and surviving cells in femoral bone sections [4]: preferential killing of cells in the middle of the BM cavity; also recorded: remain at the endosteal surface abutting murine osteoblasts; also recorded: marked segregation of apoptotic cells in the center of the bone marrow cavity
